Test results as given in ChEMBL document CHEMBL4507276 (2021).

Key:
[1] = test system: ALK tyrosine kinase receptor (Homo sapiens), Q9UM73 [C1156Y]; conditions: Compound concentration 1000.0 nM
[2] = target: Homeodomain-interacting protein kinase 2 (Homo sapiens) (UniProt Q9H2X6); conditions: Compound concentration 1000.0 nM
[3] = target: Insulin-like growth factor 1 receptor (Homo sapiens) (UniProt P08069); conditions: Compound concentration 1000.0 nM
[4] = test system: Mast/stem cell growth factor receptor Kit (Homo sapiens), P10721 [V559D,V654A]; conditions: Compound concentration 1000.0 nM
[5] = target: Serine/threonine-protein kinase LATS2 (Homo sapiens) (UniProt Q9NRM7); conditions: Compound concentration 1000.0 nM
[6] = target: Tyrosine-protein kinase Lck (Homo sapiens) (UniProt P06239); conditions: Compound concentration 1000.0 nM
[7] = target: Leucine-rich repeat serine/threonine-protein kinase 2 (Homo sapiens) (UniProt Q5S007); conditions: Compound concentration 1000.0 nM
[8] = target: T1, Tyrosine-protein kinase Mer (Homo sapiens) (UniProt Q12866); conditions: Compound concentration 1000.0 nM
T1 sequence (whole entry): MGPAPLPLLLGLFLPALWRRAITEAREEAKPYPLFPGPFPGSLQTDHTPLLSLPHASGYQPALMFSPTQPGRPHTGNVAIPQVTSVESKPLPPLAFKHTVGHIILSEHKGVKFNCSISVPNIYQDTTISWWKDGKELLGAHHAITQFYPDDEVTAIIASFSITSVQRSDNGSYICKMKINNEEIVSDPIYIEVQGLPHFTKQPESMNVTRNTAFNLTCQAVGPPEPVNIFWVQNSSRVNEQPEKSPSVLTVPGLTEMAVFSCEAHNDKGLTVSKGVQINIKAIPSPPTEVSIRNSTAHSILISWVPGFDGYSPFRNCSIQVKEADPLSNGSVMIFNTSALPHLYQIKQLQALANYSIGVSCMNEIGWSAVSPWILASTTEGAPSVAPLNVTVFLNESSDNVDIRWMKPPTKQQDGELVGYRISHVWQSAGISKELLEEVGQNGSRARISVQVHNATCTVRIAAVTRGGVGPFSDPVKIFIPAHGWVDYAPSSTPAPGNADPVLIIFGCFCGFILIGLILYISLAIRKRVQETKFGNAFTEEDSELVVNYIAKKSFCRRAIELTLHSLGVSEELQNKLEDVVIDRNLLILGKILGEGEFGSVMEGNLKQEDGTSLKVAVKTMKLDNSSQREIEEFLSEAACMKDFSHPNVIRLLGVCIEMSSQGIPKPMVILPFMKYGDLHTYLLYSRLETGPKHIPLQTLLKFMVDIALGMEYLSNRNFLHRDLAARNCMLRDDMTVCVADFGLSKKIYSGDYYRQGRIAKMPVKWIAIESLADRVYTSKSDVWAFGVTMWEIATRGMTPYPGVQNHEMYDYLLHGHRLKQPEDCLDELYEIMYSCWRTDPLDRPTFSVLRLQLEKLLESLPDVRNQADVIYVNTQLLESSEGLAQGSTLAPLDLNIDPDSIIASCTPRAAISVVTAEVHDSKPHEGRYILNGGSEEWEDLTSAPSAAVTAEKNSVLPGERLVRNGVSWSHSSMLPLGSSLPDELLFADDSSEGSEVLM

[9] = target: Mitogen-activated protein kinase kinase kinase 10 (Homo sapiens) (UniProt Q02779); conditions: Compound concentration 1000.0 nM
[10] = target: Serine/threonine-protein kinase Nek4 (Homo sapiens) (UniProt P51957); conditions: Compound concentration 1000.0 nM
[11] = target: Phosphatidylinositol 4,5-bisphosphate 3-kinase catalytic subunit alpha isoform (Homo sapiens) (UniProt P42336); conditions: Compound concentration 1000.0 nM
[12] = test system: Phosphatidylinositol 4,5-bisphosphate 3-kinase catalytic subunit alpha isoform (Homo sapiens), P42336 [E545K]; conditions: Compound concentration 1000.0 nM
[13] = target: Serine/threonine-protein kinase RIO3 (Homo sapiens) (UniProt O14730); conditions: Compound concentration 1000.0 nM
[14] = target: T2, Testis-specific serine/threonine-protein kinase 3 (Homo sapiens) (UniProt Q96PN8); conditions: Compound concentration 1000.0 nM
T2 sequence (whole entry): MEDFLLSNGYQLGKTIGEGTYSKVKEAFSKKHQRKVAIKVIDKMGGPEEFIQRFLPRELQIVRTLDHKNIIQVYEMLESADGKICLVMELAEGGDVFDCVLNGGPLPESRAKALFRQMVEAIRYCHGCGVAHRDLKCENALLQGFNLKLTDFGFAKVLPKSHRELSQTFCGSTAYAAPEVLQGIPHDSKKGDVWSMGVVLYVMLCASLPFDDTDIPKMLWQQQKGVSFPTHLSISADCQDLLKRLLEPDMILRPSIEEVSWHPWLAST

[15] = target: Serine/threonine-protein kinase 25 (Homo sapiens) (UniProt O00506); conditions: Compound concentration 1000.0 nM
[16] = target: T3, Alpha-2A adrenergic receptor (Homo sapiens) (UniProt P08913); conditions: Compound concentration 10.0 uM
T3 sequence (whole entry): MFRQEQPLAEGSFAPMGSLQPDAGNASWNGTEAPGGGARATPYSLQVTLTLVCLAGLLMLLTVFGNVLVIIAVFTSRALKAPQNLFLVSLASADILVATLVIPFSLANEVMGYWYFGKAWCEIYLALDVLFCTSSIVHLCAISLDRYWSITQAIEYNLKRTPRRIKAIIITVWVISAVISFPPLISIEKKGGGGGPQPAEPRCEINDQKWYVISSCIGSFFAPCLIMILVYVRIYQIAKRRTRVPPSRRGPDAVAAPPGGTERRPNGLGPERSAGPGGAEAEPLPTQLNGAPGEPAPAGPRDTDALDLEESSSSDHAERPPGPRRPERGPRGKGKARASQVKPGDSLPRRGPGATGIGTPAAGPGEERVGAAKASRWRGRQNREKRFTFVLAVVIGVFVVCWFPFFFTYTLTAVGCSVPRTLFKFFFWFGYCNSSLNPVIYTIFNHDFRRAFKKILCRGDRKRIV

Serine/threonine-protein kinase 25 (Homo sapiens), sequence (O00506 whole entry, looked up): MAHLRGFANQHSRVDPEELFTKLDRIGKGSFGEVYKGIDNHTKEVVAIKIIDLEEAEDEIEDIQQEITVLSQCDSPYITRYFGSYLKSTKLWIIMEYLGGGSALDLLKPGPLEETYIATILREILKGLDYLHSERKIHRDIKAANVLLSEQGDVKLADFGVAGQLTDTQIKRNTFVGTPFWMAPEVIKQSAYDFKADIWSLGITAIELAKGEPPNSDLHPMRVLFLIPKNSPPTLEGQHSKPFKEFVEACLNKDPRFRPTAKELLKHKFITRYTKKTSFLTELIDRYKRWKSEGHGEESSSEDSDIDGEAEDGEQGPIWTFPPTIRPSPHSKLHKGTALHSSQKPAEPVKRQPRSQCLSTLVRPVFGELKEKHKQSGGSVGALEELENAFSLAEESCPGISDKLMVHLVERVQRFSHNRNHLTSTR
Mitogen-activated protein kinase kinase kinase 10 (Homo sapiens), sequence (Q02779 whole entry, looked up): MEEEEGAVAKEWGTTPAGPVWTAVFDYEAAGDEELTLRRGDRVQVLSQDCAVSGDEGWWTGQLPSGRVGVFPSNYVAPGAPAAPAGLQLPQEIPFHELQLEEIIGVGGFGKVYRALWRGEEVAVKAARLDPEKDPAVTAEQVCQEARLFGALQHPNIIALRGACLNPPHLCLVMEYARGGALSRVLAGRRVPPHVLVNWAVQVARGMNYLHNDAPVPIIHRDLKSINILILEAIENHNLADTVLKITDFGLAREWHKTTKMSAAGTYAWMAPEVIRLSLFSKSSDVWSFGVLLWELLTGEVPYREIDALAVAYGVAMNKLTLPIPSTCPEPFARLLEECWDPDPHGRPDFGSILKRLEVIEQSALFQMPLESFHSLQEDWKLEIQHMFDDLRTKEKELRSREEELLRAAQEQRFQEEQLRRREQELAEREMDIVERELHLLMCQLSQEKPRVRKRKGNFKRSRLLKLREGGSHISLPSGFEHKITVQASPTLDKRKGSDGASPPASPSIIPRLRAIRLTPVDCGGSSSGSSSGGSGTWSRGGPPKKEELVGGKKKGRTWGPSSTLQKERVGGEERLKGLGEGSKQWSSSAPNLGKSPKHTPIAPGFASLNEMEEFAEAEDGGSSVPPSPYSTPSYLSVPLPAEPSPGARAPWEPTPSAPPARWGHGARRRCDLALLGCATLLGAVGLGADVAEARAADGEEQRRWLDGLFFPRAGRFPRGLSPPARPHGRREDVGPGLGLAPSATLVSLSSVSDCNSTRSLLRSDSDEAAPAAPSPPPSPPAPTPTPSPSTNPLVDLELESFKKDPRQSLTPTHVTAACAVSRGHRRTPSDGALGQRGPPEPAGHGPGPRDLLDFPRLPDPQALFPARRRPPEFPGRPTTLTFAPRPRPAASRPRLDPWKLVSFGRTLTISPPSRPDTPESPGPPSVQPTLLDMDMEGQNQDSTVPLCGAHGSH
Phosphatidylinositol 4,5-bisphosphate 3-kinase catalytic subunit alpha isoform (Homo sapiens), sequence (P42336 whole entry, canonical isoform): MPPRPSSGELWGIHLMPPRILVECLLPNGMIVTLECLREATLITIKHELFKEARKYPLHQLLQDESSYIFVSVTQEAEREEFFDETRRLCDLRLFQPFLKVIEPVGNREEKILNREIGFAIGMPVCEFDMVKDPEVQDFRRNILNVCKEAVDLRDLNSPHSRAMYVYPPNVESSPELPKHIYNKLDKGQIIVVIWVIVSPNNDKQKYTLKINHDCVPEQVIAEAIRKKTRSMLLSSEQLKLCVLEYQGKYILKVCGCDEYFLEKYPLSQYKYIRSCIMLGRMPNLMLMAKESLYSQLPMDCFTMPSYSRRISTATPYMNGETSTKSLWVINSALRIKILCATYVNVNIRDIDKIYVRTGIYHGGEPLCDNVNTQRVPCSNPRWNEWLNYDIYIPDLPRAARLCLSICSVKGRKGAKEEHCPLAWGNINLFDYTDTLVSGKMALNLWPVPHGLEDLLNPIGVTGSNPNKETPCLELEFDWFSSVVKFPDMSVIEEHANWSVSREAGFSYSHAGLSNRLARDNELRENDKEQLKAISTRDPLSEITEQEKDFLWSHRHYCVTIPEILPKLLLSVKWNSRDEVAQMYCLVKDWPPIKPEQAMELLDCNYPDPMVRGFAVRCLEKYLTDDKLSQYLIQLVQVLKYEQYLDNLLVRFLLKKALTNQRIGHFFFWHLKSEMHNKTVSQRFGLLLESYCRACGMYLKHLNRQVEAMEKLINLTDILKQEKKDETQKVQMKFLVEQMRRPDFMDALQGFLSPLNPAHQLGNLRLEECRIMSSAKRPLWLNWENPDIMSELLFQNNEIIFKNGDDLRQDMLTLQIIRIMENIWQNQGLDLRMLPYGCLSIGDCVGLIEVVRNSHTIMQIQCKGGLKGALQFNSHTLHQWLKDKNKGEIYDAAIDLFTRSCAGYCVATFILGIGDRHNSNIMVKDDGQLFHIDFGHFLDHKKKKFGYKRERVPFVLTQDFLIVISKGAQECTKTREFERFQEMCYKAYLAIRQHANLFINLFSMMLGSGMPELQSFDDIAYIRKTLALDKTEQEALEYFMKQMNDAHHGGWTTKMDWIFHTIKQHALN
Homeodomain-interacting protein kinase 2 (Homo sapiens), sequence (Q9H2X6 whole entry, looked up): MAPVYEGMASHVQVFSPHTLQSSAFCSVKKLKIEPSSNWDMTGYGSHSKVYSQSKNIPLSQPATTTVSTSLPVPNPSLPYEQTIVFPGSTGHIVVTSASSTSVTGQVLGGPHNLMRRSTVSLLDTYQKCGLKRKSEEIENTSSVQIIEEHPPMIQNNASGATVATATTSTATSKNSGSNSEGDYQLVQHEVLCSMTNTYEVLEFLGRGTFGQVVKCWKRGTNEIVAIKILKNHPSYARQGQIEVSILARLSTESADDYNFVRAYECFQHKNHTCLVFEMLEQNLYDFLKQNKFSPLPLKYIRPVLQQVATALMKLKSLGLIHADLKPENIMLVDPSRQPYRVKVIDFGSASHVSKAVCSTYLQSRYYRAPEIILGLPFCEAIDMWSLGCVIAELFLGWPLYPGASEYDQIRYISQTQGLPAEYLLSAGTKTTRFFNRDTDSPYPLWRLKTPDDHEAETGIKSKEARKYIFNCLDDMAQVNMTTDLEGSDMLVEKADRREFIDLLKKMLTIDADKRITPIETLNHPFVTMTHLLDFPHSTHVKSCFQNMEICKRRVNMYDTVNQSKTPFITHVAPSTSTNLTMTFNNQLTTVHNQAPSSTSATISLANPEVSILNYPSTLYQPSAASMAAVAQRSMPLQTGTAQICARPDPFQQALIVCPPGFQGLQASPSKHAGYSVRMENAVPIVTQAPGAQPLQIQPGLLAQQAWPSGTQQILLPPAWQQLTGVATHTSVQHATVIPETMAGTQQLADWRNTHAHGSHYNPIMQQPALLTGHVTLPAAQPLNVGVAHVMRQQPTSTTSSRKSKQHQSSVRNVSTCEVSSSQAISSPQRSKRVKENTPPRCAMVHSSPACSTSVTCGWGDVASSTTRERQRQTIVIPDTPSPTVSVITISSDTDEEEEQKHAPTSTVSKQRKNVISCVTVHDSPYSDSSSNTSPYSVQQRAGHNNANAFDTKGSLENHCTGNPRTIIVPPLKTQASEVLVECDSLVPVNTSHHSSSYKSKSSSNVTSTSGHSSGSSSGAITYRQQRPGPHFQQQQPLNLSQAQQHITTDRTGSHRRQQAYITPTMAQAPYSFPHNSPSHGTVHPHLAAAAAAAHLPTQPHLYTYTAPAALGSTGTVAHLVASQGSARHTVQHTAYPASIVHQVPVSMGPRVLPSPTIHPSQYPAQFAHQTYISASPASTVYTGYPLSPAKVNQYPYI
Serine/threonine-protein kinase LATS2 (Homo sapiens), sequence (Q9NRM7 whole entry): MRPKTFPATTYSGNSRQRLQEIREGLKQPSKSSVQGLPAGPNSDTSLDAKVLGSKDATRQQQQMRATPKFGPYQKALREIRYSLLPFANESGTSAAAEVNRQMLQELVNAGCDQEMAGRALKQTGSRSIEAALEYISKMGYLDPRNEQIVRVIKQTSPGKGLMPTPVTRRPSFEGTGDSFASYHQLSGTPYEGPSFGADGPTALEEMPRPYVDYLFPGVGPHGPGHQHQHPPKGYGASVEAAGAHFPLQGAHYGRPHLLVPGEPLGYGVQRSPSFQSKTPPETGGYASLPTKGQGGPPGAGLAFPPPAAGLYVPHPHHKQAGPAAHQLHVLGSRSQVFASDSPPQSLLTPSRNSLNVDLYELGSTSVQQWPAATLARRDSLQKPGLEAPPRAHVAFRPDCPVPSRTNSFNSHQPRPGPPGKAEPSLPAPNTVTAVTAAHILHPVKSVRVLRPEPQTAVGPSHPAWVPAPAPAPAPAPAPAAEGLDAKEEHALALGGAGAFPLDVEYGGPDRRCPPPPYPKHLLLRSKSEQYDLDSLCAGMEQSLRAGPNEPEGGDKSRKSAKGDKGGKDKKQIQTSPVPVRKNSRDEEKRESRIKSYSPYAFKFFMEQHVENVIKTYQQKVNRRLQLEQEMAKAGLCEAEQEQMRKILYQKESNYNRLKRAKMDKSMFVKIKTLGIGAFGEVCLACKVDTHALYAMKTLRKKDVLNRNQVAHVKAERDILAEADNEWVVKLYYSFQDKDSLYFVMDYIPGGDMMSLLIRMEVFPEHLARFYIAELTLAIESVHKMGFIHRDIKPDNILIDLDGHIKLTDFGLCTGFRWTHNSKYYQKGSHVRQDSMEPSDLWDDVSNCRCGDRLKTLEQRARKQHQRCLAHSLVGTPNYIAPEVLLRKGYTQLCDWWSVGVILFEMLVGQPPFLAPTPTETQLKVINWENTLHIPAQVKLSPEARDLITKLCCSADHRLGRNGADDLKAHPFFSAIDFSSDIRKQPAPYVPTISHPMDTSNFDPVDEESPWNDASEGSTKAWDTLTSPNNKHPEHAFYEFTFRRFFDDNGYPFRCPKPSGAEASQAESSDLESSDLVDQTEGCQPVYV
Phosphatidylinositol 4,5-bisphosphate 3-kinase catalytic subunit alpha isoform (Homo sapiens), P42336 [E545K], sequence (P42336 whole entry E545K, canonical isoform): as the sequence (P42336 whole entry, canonical isoform) above, with E545K counted along it

SMILES | residual activity [1] [%] | residual activity [2] [%] | residual activity [3] [%] | residual activity [4] [%] | residual activity [5] [%] | residual activity [6] [%] | residual activity [7] [%] | residual activity [8] [%] | residual activity [9] [%] | residual activity [10] [%] | residual activity [11] [%] | residual activity [12] [%] | residual activity [13] [%] | residual activity [14] [%] | residual activity [15] [%] | inhibition [16] [%]
CN(C)C(=O)Cn1cc(-c2nc(C3(c4ccc(-c5cnc(N)nc5)cc4)CC3)no2)cn1 [BI 0153] | 100 | 94 | 85 | 100 | 46 | 83 | 100 | 88 | 62 | 95 | 76 | 85 | 89 | 97 | 100 | 22.4
CN(C)C(=O)Cn1cc(-c2nc([C@@](C)(c3ccc(-c4cnc(N)nc4)cc3)C3CC3)no2)cn1 [BI 665915] | 98 | 87 | 100 | 93 | 74 | 86 | 74 | 100 | 83 | 88 | 96 | 81 | 100 | 68 | 100 | -3.33
